Experimental data reported in the supplement of paper PMC9912026.

Tested on: HT29
Experiment: pERK immunofluorescence normalised to no-drug reference (=1); higher = more ERK phosphorylation (less pathway inhibition)
Details: drug treatment time 24 h, EGF time 8 h
Method: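 A375 CRISPRa-EGFR (A375_aEGFR2) or HT29 cells were treated with two-drug dose combinations (vemurafenib, LY3009120, cobimetinib) for 24 h, then stimulated with EGF (100 ng/mL) or mock medium for 8 h. pERK (T202/Y204) was measured by immunofluorescence as the cytosolic population average, normalised to an untreated no-drug reference of the block (=1). Averages of 2 technical replicates. A375 in 5% FBS, HT29 in 10% FBS.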

CCCS(=O)(=O)Nc1ccc(F)c(C(=O)c2c[nH]c3ncc(-c4ccc(Cl)cc4)cc23)c1F [Vemurafenib] + O=C(c1ccc(F)c(F)c1Nc1ccc(I)cc1F)N1CC(O)([C@@H]2CCCCN2)C1 [Cobimetinib]
pERK immunofluorescence normalised
Details	drug B concentration 0 µM	drug B concentration 0.0001 µM	drug B concentration 0.0003162 µM	drug B concentration 0.001 µM	drug B concentration 0.00316228 µM	drug B concentration 0.01 µM	drug B concentration 0.0316228 µM	drug B concentration 0.1 µM	drug B concentration 0.316228 µM	drug B concentration 1 µM
drug A concentration 0 µM, EGF 0 ng/mL	–	1.1	0.976	0.886	0.53	0.231	0.148	0.115	0.102	0.0988
drug A concentration 0 µM, EGF 100 ng/mL	–	1.01	0.982	0.979	0.936	0.829	0.673	0.483	0.218	0.117
drug A concentration 0.000316 µM, EGF 0 ng/mL	1	1.07	1.06	0.85	0.482	0.233	0.136	0.102	0.0952	0.0916
drug A concentration 0.000316 µM, EGF 100 ng/mL	1.1	1.09	1.13	1.03	1.03	0.928	0.82	0.539	0.227	0.111
drug A concentration 0.001 µM, EGF 0 ng/mL	1.05	1.06	1.03	0.855	0.463	0.217	0.127	0.106	0.0917	0.0915
drug A concentration 0.001 µM, EGF 100 ng/mL	1.05	1.11	1.14	1.08	1.02	0.873	0.751	0.499	0.213	0.108
drug A concentration 0.00316 µM, EGF 0 ng/mL	1.07	1.06	1.02	0.836	0.463	0.225	0.132	0.0985	0.0922	0.0903
drug A concentration 0.00316 µM, EGF 100 ng/mL	1.05	1.13	1.17	1.04	1.03	0.887	0.769	0.496	0.213	0.106
drug A concentration 0.01 µM, EGF 0 ng/mL	0.924	0.922	0.868	0.73	0.416	0.201	0.124	0.0992	0.093	0.0898
drug A concentration 0.01 µM, EGF 100 ng/mL	1.03	1.04	1.04	0.958	1	0.902	0.738	0.473	0.213	0.107
drug A concentration 0.0316 µM, EGF 0 ng/mL	0.742	0.727	0.695	0.513	0.389	0.189	0.129	0.0998	0.0935	0.095
drug A concentration 0.0316 µM, EGF 100 ng/mL	0.843	0.912	0.902	0.933	0.854	0.818	0.699	0.467	0.211	0.109
drug A concentration 0.1 µM, EGF 0 ng/mL	0.43	0.429	0.451	0.339	0.213	0.148	0.124	0.109	0.101	0.1
drug A concentration 0.1 µM, EGF 100 ng/mL	0.824	0.844	0.967	0.948	0.882	0.755	0.699	0.437	0.212	0.112
drug A concentration 0.316228 µM, EGF 0 ng/mL	0.261	0.305	0.273	0.251	0.166	0.133	0.115	0.104	0.101	0.0973
drug A concentration 0.316228 µM, EGF 100 ng/mL	0.765	0.827	0.843	0.882	0.815	0.767	0.626	0.458	0.206	0.109
drug A concentration 1 µM, EGF 0 ng/mL	0.201	0.205	0.203	0.178	0.146	0.125	0.111	0.101	0.0945	0.0941
drug A concentration 1 µM, EGF 100 ng/mL	0.754	0.764	0.815	0.808	0.746	0.713	0.606	0.363	0.177	0.104
drug A concentration 3.16 µM, EGF 0 ng/mL	0.162	0.165	0.171	0.144	0.134	0.119	0.113	0.0971	0.0922	0.0932
drug A concentration 3.16 µM, EGF 100 ng/mL	0.69	0.73	0.731	0.772	0.663	0.562	0.414	0.215	0.115	0.093
drug A concentration 10 µM, EGF 0 ng/mL	0.187	0.177	0.202	0.185	0.158	0.133	0.106	0.091	0.0912	0.0919
drug A concentration 10 µM, EGF 100 ng/mL	0.541	0.517	0.524	0.486	0.441	0.323	0.187	0.107	0.0914	0.09
